{
  "source": "paper PMC11882969",
  "about": "(Nature Communications, 2025)",
  "format_in_all_cases": "cell-based",
  "key": {"[1]": {"biological_target": "panel of 320 non-olfactory GPCRs (Homo sapiens, UniProt O00398)"}, "[2]": {"biological_target": "panel of 320 non-olfactory GPCRs (Homo sapiens, UniProt P22888)", "sequence (P22888 27-699)": "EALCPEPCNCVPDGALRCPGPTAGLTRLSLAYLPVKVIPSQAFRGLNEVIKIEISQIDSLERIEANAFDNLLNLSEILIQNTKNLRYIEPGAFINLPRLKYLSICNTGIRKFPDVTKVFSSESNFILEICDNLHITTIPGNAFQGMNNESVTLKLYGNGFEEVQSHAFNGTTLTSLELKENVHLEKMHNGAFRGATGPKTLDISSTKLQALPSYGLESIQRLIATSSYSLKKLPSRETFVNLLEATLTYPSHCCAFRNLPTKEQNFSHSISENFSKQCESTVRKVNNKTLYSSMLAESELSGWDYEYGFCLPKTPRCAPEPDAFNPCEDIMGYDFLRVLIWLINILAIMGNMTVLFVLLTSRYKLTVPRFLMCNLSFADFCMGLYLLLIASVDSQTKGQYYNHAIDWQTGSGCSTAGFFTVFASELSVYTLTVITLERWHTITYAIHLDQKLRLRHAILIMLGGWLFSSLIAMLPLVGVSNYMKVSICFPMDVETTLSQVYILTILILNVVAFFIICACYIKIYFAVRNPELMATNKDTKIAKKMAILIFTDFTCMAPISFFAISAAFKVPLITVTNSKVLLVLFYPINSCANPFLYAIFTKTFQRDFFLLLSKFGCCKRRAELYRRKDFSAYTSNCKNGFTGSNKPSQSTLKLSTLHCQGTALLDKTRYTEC"}, "[3]": {"biological_target": "panel of 320 non-olfactory GPCRs (Homo sapiens, UniProt Q8TDV0)"}, "[4]": {"biological_target": "panel of 320 non-olfactory GPCRs (Homo sapiens, UniProt P29371)"}, "[5]": {"biological_target": "panel of 320 non-olfactory GPCRs (Homo sapiens, UniProt P25100)"}, "[6]": {"biological_target": "panel of 320 non-olfactory GPCRs (Homo sapiens, UniProt Q99500)", "sequence (Q99500 whole entry)": "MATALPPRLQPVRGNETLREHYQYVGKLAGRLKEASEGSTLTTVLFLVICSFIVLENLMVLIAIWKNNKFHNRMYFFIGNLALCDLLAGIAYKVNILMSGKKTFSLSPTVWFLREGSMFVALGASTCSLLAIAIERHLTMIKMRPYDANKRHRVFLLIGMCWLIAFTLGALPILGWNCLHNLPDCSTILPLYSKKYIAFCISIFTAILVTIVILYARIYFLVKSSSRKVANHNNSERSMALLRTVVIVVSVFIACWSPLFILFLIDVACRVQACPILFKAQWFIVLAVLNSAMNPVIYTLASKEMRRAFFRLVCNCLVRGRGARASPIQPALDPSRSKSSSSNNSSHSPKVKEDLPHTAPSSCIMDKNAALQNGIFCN"}, "[7]": {"biological_target": "panel of 320 non-olfactory GPCRs (Homo sapiens, UniProt P08913)"}, "[8]": {"biological_target": "panel of 320 non-olfactory GPCRs (Homo sapiens, UniProt Q8TDS5)"}, "[9]": {"biological_target": "panel of 320 non-olfactory GPCRs (Homo sapiens, UniProt P32238)"}, "[10]": {"biological_target": "panel of 320 non-olfactory GPCRs (Homo sapiens, UniProt P50406)"}, "[11]": {"biological_target": "panel of 320 non-olfactory GPCRs (Homo sapiens, UniProt P51681)"}, "[12]": {"biological_target": "panel of 320 non-olfactory GPCRs (Homo sapiens, UniProt Q7Z601)"}, "[13]": {"biological_target": "panel of 320 non-olfactory GPCRs (Homo sapiens, UniProt Q96P69)", "sequence (Q96P69 whole entry)": "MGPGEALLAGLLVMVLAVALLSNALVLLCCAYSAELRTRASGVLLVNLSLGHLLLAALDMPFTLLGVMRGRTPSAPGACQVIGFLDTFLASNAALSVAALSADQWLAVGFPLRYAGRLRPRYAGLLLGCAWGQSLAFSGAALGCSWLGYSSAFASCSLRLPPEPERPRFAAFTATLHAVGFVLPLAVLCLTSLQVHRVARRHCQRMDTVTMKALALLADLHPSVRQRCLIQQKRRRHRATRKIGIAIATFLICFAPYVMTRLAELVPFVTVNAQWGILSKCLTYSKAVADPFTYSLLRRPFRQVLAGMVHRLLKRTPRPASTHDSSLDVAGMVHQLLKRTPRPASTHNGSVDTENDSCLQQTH"}, "[14]": {"biological_target": "panel of 320 non-olfactory GPCRs (Homo sapiens, UniProt P41587)"}, "[15]": {"biological_target": "panel of 320 non-olfactory GPCRs (Homo sapiens, UniProt Q9Y271)"}, "[16]": {"biological_target": "panel of 320 non-olfactory GPCRs (Homo sapiens, UniProt Q96PE1)"}, "[17]": {"biological_target": "panel of 320 non-olfactory GPCRs (Homo sapiens, UniProt Q7Z602)"}, "[18]": {"biological_target": "panel of 320 non-olfactory GPCRs (Homo sapiens, UniProt P41145)", "sequence (P41145 whole entry)": "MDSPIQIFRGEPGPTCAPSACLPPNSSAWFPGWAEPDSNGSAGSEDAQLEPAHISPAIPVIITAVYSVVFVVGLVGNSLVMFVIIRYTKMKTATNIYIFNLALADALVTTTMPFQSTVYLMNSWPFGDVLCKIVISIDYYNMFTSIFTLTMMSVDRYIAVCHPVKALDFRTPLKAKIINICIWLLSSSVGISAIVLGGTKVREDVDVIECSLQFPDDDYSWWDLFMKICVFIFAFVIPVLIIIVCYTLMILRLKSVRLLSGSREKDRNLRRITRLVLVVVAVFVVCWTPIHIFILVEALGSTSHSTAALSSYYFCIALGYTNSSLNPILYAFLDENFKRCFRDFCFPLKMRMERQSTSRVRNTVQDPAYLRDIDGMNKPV"}, "[19]": {"biological_target": "panel of 320 non-olfactory GPCRs (Homo sapiens, UniProt Q8NFN8)"}, "[20]": {"biological_target": "panel of 320 non-olfactory GPCRs (Homo sapiens, UniProt Q8TDU6)"}, "[21]": {"biological_target": "panel of 320 non-olfactory GPCRs (Homo sapiens, UniProt P47872)"}, "[22]": {"biological_target": "panel of 320 non-olfactory GPCRs (Homo sapiens, UniProt P25024)"}, "[23]": {"biological_target": "panel of 320 non-olfactory GPCRs (Homo sapiens, UniProt P21462)"}, "[24]": {"biological_target": "panel of 320 non-olfactory GPCRs (Homo sapiens, UniProt Q9BXC0)", "sequence (Q9BXC0 whole entry)": "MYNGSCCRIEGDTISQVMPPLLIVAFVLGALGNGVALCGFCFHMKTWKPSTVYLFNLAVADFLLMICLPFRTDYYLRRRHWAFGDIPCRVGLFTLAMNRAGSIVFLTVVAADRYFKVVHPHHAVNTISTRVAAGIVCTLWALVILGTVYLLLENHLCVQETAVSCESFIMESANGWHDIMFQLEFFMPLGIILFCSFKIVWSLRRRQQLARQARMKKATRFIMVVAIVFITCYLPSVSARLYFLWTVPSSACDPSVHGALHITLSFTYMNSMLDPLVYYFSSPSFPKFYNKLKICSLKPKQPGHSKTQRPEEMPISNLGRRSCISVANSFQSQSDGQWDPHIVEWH"}, "[25]": {"biological_target": "panel of 320 non-olfactory GPCRs (Homo sapiens, UniProt Q9Y5N1)"}, "[26]": {"biological_target": "panel of 320 non-olfactory GPCRs (Homo sapiens, UniProt Q9NS67)", "sequence (Q9NS67 whole entry)": "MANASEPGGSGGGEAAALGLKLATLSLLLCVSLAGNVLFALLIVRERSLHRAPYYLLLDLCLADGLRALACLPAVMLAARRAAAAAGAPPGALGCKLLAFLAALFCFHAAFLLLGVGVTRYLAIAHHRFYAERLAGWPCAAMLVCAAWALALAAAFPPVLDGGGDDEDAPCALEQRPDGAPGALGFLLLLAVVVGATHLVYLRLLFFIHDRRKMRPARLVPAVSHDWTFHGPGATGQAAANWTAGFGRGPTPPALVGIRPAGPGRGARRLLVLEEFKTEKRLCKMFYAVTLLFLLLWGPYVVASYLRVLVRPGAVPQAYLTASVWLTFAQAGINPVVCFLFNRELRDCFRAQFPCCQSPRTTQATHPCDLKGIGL"}, "[27]": {"biological_target": "panel of 320 non-olfactory GPCRs (Homo sapiens, UniProt Q8NGU9)"}, "[28]": {"biological_target": "panel of 320 non-olfactory GPCRs (Homo sapiens, UniProt P41586)"}, "[29]": {"biological_target": "panel of 320 non-olfactory GPCRs (Homo sapiens, UniProt Q9HB89)"}, "[30]": {"biological_target": "panel of 320 non-olfactory GPCRs (Homo sapiens, UniProt P08588)", "sequence (P08588 whole entry)": "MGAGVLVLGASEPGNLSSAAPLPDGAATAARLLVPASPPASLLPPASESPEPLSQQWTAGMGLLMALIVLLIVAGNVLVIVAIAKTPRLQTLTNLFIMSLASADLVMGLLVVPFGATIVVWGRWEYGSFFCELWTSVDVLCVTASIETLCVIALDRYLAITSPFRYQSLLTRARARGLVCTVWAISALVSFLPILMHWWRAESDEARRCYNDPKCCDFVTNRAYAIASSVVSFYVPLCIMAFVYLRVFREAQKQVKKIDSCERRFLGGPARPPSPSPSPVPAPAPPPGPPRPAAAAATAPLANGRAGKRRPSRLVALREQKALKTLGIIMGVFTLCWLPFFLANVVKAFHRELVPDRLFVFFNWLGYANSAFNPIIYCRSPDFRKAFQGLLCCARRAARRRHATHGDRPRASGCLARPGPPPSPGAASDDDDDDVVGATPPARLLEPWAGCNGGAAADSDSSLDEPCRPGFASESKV"}, "[31]": {"biological_target": "panel of 320 non-olfactory GPCRs (Homo sapiens, UniProt Q8IZF4)"}, "[32]": {"biological_target": "panel of 320 non-olfactory GPCRs (Homo sapiens, UniProt Q14831)", "sequence (Q14831 35-915)": "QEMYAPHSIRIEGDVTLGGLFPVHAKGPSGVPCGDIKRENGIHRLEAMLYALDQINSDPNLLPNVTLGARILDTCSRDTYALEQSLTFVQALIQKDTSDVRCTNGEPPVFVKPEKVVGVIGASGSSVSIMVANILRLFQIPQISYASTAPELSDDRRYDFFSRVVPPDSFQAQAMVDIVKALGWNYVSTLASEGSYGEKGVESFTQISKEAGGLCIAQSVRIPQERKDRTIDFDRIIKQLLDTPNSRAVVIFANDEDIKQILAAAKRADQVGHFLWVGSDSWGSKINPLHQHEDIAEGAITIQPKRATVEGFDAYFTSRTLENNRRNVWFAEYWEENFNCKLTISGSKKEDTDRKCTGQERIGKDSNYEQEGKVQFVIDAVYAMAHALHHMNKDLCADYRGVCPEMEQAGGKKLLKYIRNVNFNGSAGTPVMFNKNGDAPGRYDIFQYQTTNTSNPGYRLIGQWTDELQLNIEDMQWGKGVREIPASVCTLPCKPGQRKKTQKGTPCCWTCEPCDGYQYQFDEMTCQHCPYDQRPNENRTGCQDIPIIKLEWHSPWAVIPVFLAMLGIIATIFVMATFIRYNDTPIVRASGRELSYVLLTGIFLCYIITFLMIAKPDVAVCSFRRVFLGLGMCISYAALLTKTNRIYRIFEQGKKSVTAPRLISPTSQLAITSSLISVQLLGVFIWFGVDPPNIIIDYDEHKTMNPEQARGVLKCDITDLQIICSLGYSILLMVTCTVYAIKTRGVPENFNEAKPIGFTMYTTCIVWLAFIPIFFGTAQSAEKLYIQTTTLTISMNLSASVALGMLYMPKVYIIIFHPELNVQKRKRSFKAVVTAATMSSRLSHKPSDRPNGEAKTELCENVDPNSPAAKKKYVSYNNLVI"}, "[33]": {"biological_target": "panel of 320 non-olfactory GPCRs (Homo sapiens, UniProt P21731)", "sequence (P21731 whole entry)": "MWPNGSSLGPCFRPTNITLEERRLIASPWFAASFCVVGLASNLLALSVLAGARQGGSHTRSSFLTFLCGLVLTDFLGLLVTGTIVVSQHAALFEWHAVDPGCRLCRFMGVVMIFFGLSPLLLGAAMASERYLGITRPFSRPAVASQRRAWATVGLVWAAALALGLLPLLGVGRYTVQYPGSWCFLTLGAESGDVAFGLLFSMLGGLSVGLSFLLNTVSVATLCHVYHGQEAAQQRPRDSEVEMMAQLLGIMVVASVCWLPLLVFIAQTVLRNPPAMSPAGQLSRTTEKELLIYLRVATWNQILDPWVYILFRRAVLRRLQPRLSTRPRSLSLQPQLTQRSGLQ"}, "[34]": {"biological_target": "panel of 320 non-olfactory GPCRs (Homo sapiens, UniProt Q96RJ0)", "sequence (Q96RJ0 whole entry)": "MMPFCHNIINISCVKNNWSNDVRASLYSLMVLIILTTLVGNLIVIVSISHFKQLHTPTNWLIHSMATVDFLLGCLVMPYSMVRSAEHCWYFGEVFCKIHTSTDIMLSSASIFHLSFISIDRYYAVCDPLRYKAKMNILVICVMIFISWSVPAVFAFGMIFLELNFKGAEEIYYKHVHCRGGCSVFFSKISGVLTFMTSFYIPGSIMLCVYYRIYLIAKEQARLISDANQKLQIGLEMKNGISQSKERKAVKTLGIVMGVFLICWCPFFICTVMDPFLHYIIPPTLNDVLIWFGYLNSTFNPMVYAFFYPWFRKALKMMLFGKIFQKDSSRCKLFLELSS"}, "[35]": {"biological_target": "panel of 320 non-olfactory GPCRs (Homo sapiens, UniProt Q9Y2T5)", "sequence (Q9Y2T5 whole entry)": "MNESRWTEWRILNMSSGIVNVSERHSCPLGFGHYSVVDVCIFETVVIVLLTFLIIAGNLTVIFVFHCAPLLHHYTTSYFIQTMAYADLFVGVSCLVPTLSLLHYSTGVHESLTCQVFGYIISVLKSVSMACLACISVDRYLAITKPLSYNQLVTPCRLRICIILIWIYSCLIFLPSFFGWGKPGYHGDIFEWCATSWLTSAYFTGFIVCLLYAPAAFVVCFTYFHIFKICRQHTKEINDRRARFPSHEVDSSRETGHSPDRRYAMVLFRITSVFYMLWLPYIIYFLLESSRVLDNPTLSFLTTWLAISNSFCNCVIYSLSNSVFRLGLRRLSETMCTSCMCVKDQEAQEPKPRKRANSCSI"}, "[36]": {"biological_target": "panel of 320 non-olfactory GPCRs (Homo sapiens, UniProt Q86SM8)"}, "[37]": {"biological_target": "panel of 320 non-olfactory GPCRs (Homo sapiens, UniProt Q9NZH0)"}},
  "note": "Values joined by “and” are separate entries in the source; they are usually repeats but may differ in a detail not shown here. Equal values may be shown once. Also: test concentration or dose not given here.",
  "data": [
    {"smiles": "COC(=O)[C@@](C)(NC(=O)c1cc(C)n(-c2cccc(C(F)(F)F)c2)n1)c1cccs1", "note": "[‘1350]", "values": [
      {"measurement": "Fold of Basal RLU", "setting": "[1]", "value": "1.1 and 1 and 1.2"},
      {"measurement": "Fold of Basal RLU", "setting": "[2]", "value": "0.9 and 1 and 1.1"},
      {"measurement": "Fold of Basal RLU", "setting": "[3]", "value": "0.6 and 0.8 and 1.1"},
      {"measurement": "Fold of Basal RLU", "setting": "[4]", "value": "1.6 fold and 1.3 fold and 1.4 fold"},
      {"measurement": "Fold of Basal RLU", "setting": "[5]", "value": "0.6 and 0.7 and 0.9 and 0.5"},
      {"measurement": "Fold of Basal RLU", "setting": "[6]", "value": "0.4 and 0.5 and 0.8"},
      {"measurement": "Fold of Basal RLU", "setting": "[7]", "value": "1.8 fold and 1.4 fold and 1.6 fold and 1.2 fold"},
      {"measurement": "Fold of Basal RLU", "setting": "[8]", "value": "0.4 and 0.8 and 0.5"},
      {"measurement": "Fold of Basal RLU", "setting": "[9]", "value": "1.4 and 0.9 and 1.1 and 1.7"},
      {"measurement": "Fold of Basal RLU", "setting": "[10]", "value": "1.2 and 1 and 1.1"},
      {"measurement": "Fold of Basal RLU", "setting": "[11]", "value": "0.9 and 0.6 and 1.1 and 0.7"},
      {"measurement": "Fold of Basal RLU", "setting": "[12]", "value": "1.2 and 0.9 and 1"},
      {"measurement": "Fold of Basal RLU", "setting": "[13]", "value": "0.8 and 1 and 1.1 and 1.4"},
      {"measurement": "Fold of Basal RLU", "setting": "[14]", "value": "0.9 and 1 and 0.7 and 1.3"}
    ]},
    {"smiles": "Cc1cc(C(=O)NC(C)(c2ccco2)c2ccco2)nn1-c1cccc(C(F)(F)F)c1", "note": "[‘4936]", "values": [
      {"measurement": "Fold of Basal RLU", "setting": "[15]", "value": "1.1 and 0.9"},
      {"measurement": "Fold of Basal RLU", "setting": "[16]", "value": "0.6 fold and 0.5 fold and 0.9 fold and 1 fold"},
      {"measurement": "Fold of Basal RLU", "setting": "[17]", "value": "1.2 fold and 1.4 fold and 0.8 fold"},
      {"measurement": "Fold of Basal RLU", "setting": "[18]", "value": "1.5 fold and 0.8 fold and 1 fold"},
      {"measurement": "Fold of Basal RLU", "setting": "[19]", "value": "0.8 and 1.2 and 0.6"},
      {"measurement": "Fold of Basal RLU", "setting": "[20]", "value": "1.4 fold and 1.5 fold and 1.7 fold"},
      {"measurement": "Fold of Basal RLU", "setting": "[21]", "value": "1.6 and 1.3"},
      {"measurement": "Fold of Basal RLU", "setting": "[22]", "value": "0.9 fold and 1.4 fold and 1.3 fold"},
      {"measurement": "Fold of Basal RLU", "setting": "[23]", "value": "1.8 and 2.2 and 1.2 and 1.7"},
      {"measurement": "Fold of Basal RLU", "setting": "[24]", "value": "0.4 and 0.7 and 0.6"},
      {"measurement": "Fold of Basal RLU", "setting": "[25]", "value": "1 and 0.5 and 0.6"},
      {"measurement": "Fold of Basal RLU", "setting": "[26]", "value": "0.5 and 0.7 and 0.6"},
      {"measurement": "Fold of Basal RLU", "setting": "[27]", "value": "0.7 and 0.6 and 0.5"},
      {"measurement": "Fold of Basal RLU", "setting": "[28]", "value": "0.5 fold and 0.9 fold and 0.7 fold and 0.8 fold"},
      {"measurement": "Fold of Basal RLU", "setting": "[29]", "value": "0.9 and 1.5"},
      {"measurement": "Fold of Basal RLU", "setting": "[30]", "value": "0.7 and 0.8 and 0.6"},
      {"measurement": "Fold of Basal RLU", "setting": "[31]", "value": "0.9 and 1 and 0.8 and 0.6"},
      {"measurement": "Fold of Basal RLU", "setting": "[32]", "value": "0.5 and 1 and 0.9 and 0.6"},
      {"measurement": "Fold of Basal RLU", "setting": "[33]", "value": "0.7 and 1.2 and 0.8"},
      {"measurement": "Fold of Basal RLU", "setting": "[34]", "value": "1 fold and 1.1 fold and 0.9 fold"},
      {"measurement": "Fold of Basal RLU", "setting": "[35]", "value": "1.8 fold and 1.9 fold and 2.1 fold"},
      {"measurement": "Fold of Basal RLU", "setting": "[36]", "value": "0.9 fold and 1.5 fold and 1.3 fold"},
      {"measurement": "Fold of Basal RLU", "setting": "[37]", "value": "0.7 and 0.6 and 0.8"}
    ]}
  ]
}
